Reference: publication PMC9161616, “A first-in-human phase 1/2 study of FGF401 and combination of FGF401 with spartalizumab in patients with hepatocellular carcinoma or biomarker-selected solid tumors” (Journal of Experimental & Clinical Cancer Research : CR, 2022)
“Also recorded” adds a separate entry of the source. Where two headings read alike, the source gives them in different places.

Assays:
[1] = Plasma pharmacokinetics of FGF401 (noncompartmental) and food effect; assay type: in vivo, human
Experimental: Pharmacokinetic endpoints included plasma concentrations and PK parameters of FGF401 and spartalizumab. Pharmacokinetic parameters were determined with noncompartmental method(s) using Phoenix WinNonlin version 6.4 or above (Pharsight Corporation, Mountain View, Califormia, USA). Immunogenicity of spartalizumab was assessed through presence and/or concentration of anti-drug (spartalizumab) antibodies (ADA). Food effect on FGF401 exposure was evaluated through plasma concentration of FGF401 and relevant PK parameters when dosing under fed condition. Safety of the food effect was assessed through incidence and severity of AEs and serious AEs (SAEs), including changes in laboratory values, vital signs, and ECGs when dosing under fed condition. The PK analyses and summary statistics were based on pharmacokinetic analysis set. Individual as well as mean concentration-time profiles were constructed using concentration data for spartalizumab and FGF401. Descriptive statistics for PK parameters included mean, standard deviation, coefficient of variation (CV%) mean, geometric mean, median, minimum, and maximum, with only the latter 3 for time to reach maximum concentration (Tmax) and additional 90% CI for accumulation ratio (Racc). Zero concentrations were not included in the geometric mean calculations. Missing concentrations or PK parameter values were not imputed.

FGF19-FGFR4 signaling = test: Blood-based pharmacodynamic biomarkers (C4, total bile acids, FGF19, cholesterol); assay type: in vivo, human
Experimental: An immunohistochemistry (IHC) assay to detect FGF19 was used retrospectively on remnant samples and the association of FGF19 expression levels with best change in sum of diameters (SOD) for RECIST v1.1 in the single-agent was evaluated. […] FGF19 was quantified using a capture-ELISA assay from R&D System, Cat. nr. DF1900, with a LLOQ of 27.2 pg/mL and ULOQ of 1096.3 pg/mL. C4: 7α-Hydroxy-4-cholesten-3-one was determined using an LC-MS/MS method. The concentration of total bile acids were measured using the colorimetric diazyme’s enzymatic total bile acids assay.

[2] = tested on: CYP7A1 and DUSP6 transcript levels in tumor biopsies; test: Tumor biopsy RNAseq pharmacodynamics; assay type: in vivo, human
Experimental: Additionally, exploratory biomarker endpoints to assess FGF19-FGFR4 signaling inhibition by FGF401 included temporal profiling of C4, FGF19, total bile acid and total cholesterol levels in blood, and CYP7A1 and DUSP6 transcript levels in tumor biopsies. An immunohistochemistry (IHC) assay to detect FGF19 was used retrospectively on remnant samples and the association of FGF19 expression levels with best change in sum of diameters (SOD) for RECIST v1.1 in the single-agent was evaluated.
For RNAseq based studies, extracted total RNA was depleted from ribosomal RNA using RNAseH. The rRNA-depleted sample was then prepared for sequencing using the TruSeq RNA v.2 Library Preparation kit (Illumina). After pooling the captured library using unique adapter index sequences and applying the pool to a sequencing flow cell, they were sequenced using Illumina v.4 chemistry and paired-end 100-bp reads. Sequence data were aligned to the reference human genome (build hg19) using STAR v.2.4.0e. Mapped reads were then used to quantify transcripts with HTSeq v.0.6.1p1 [28] and RefSeq GRCh38 v.82 gene annotation. Gene expression data were normalized using the trimmed mean of M-value normalization as implemented in the edgeR – Bioconductor package v.3.20.9 [29].

phospho-FGFR4 [3] = test: Preclinical in vivo phospho-FGFR4 inhibition; conditions: equivalent of 52.1 nM
phospho-FGFR4 [4] = conditions: preclinical; read-out: in vivo phospho-FGFR4 IC90; cited from earlier work
[5] = tested on: HCC and gastric cancer cell lines expressing FGFR4, KLB and FGF19; conditions: excellent selectivity over non-sensitive tumor models; cited from earlier work
[6] = tested on: cell-line derived HCC xenografts and patient-derived HCC xenografts; conditions: dose-dependent manner; cited from earlier work
[7] = human, plasma, oral, 80 mg, Cycle 1 day 8, 80 mg Fasted, n=6, geometric mean (CV%)
[8] = human, plasma, oral, 80 mg, Cycle 1 day 8, 80 mg Fed, n=4, geometric mean (CV%)
[9] = human, plasma, oral, 150 mg, Cycle 1 day 8, 150 mg Fasted, n=6, geometric mean (CV%)
[10] = low fat meals, 80 mg and 120 mg
[11] = most patients across the FGF401 dose levels
[12] = most on-treatment biopsies obtained at C1D8

Structure (SMILES): COCCNc1cc(NC(=O)N2CCCc3cc(CN4CCN(C)CC4=O)c(C=O)nc32)ncc1C#N [FGF401, roblitinib]
- dose proportionality of exposures (AUC and Cmax) ([1]; 50 to 150 mg, fasted and fasted-fed combined): increased slightly under dose proportion
- Racc ([1]; C1D8 and C2D1 versus C1D1): around 1
- Racc ([1]; Cycle 1 day 8, 50 mg Fasted, n=6, geometric mean (CV%)): 0.929 (12.1)
- Racc ([1]; Cycle 1 day 8, 80 mg Fasted, n=5, geometric mean (CV%)): 0.97 (14.3)
- Racc ([1]; Cycle 1 day 8, 80 mg Fed, n=4, geometric mean (CV%)): 1.04 (18.6)
- Racc ([1]; Cycle 1 day 8, 120 mg Fasted, n=24, geometric mean (CV%)): 1.03 (26.2)
- Racc ([1]; Cycle 1 day 8, 120 mg Fed, n=15, geometric mean (CV%)): 0.95 (22.5)
- Racc ([1]; Cycle 1 day 8, 150 mg Fasted, n=6, geometric mean (CV%)): 0.982 (33.3)
- food effect ([1]; dosed with low-fat meals, 80 mg and 120 mg): no food effect
- mean trough concentration at steady state (24 h post-dose) versus phospho-FGFR4 IC90 ([1]; even at 50 mg qd): approximately above this IC90
- AUC(0-inf) ([1]; human, plasma, oral, 50 mg, Cycle 1 day 8, 50 mg Fasted, n=6, geometric mean (CV%)): 3650 ng·h/mL
- half-life ([1]; human, plasma, oral, 50 mg, Cycle 1 day 8, 50 mg Fasted, n=6, geometric mean (CV%), read-out: T1/2 (converted)): 6.57 h
- Cmax ([1]; human, plasma, oral, 50 mg, Cycle 1 day 8, 50 mg Fasted, n=7, geometric mean (CV%)): 663 ng/mL
- AUC(0-t) ([1]; human, plasma, oral, 50 mg, Cycle 1 day 8, 50 mg Fasted, n=7, geometric mean (CV%), read-out: AUC0-24h): 3650 ng·h/mL
- AUC(0-t) ([1]; human, plasma, oral, 50 mg, Cycle 1 day 8, 50 mg Fasted, n=7, geometric mean (CV%), read-out: AUClast): 3460 ng·h/mL
- Tmax ([1]; human, plasma, oral, 50 mg, Cycle 1 day 8, 50 mg Fasted, n=7, median [min, max], read-out: Tmax): 1 h
- AUC(0-inf) [1, 7]: 5130 ng·h/mL
- Cmax [1, 7]: 838 ng/mL
- AUC(0-t) ([1]; human, plasma, oral, 80 mg, Cycle 1 day 8, 80 mg Fasted, n=6, geometric mean (CV%), read-out: AUC0-24h): 4850 ng·h/mL
- AUC(0-t) ([1]; human, plasma, oral, 80 mg, Cycle 1 day 8, 80 mg Fasted, n=6, geometric mean (CV%), read-out: AUClast): 4840 ng·h/mL
- half-life ([1]; human, plasma, oral, 80 mg, Cycle 1 day 8, 80 mg Fasted, n=6, geometric mean (CV%), read-out: T1/2 (converted)): 6.08 h
- Tmax ([1]; human, plasma, oral, 80 mg, Cycle 1 day 8, 80 mg Fasted, n=6, median [min, max], read-out: Tmax): 1.01 h
- AUC(0-inf) [1, 8]: 5550 ng·h/mL
- Cmax [1, 8]: 704 ng/mL
- AUC(0-t) ([1]; human, plasma, oral, 80 mg, Cycle 1 day 8, 80 mg Fed, n=4, geometric mean (CV%), read-out: AUC0-24h): 5290 ng·h/mL
- AUC(0-t) ([1]; human, plasma, oral, 80 mg, Cycle 1 day 8, 80 mg Fed, n=4, geometric mean (CV%), read-out: AUClast): 5280 ng·h/mL
- half-life ([1]; human, plasma, oral, 80 mg, Cycle 1 day 8, 80 mg Fed, n=4, geometric mean (CV%), read-out: T1/2 (converted)): 5.58 h
- Tmax ([1]; human, plasma, oral, 80 mg, Cycle 1 day 8, 80 mg Fed, n=4, median [min, max], read-out: Tmax): 2.5 h
- AUC(0-inf) ([1]; human, plasma, oral, 120 mg, Cycle 1 day 8, 120 mg Fasted, n=18, geometric mean (CV%)): 7590 ng·h/mL
- half-life ([1]; human, plasma, oral, 120 mg, Cycle 1 day 8, 120 mg Fasted, n=18, geometric mean (CV%), read-out: T1/2 (converted)): 5.43 h
- Cmax ([1]; human, plasma, oral, 120 mg, Cycle 1 day 8, 120 mg Fasted, n=24, geometric mean (CV%)): 1120 ng/mL
- AUC(0-t) ([1]; human, plasma, oral, 120 mg, Cycle 1 day 8, 120 mg Fasted, n=24, geometric mean (CV%), read-out: AUC0-24h): 6970 ng·h/mL
- AUC(0-t) ([1]; human, plasma, oral, 120 mg, Cycle 1 day 8, 120 mg Fasted, n=24, geometric mean (CV%), read-out: AUClast): 6480 ng·h/mL
- Tmax ([1]; human, plasma, oral, 120 mg, Cycle 1 day 8, 120 mg Fasted, n=24, median [min, max], read-out: Tmax): 1.04 h
- AUC(0-inf) ([1]; human, plasma, oral, 120 mg, Cycle 1 day 8, 120 mg Fed, n=15, geometric mean (CV%)): 7980 ng·h/mL
- half-life ([1]; human, plasma, oral, 120 mg, Cycle 1 day 8, 120 mg Fed, n=15, geometric mean (CV%), read-out: T1/2 (converted)): 5.58 h
- AUC(0-t) ([1]; human, plasma, oral, 120 mg, Cycle 1 day 8, 120 mg Fed, n=16, geometric mean (CV%), read-out: AUC0-24h): 7330 ng·h/mL
- Cmax ([1]; human, plasma, oral, 120 mg, Cycle 1 day 8, 120 mg Fed, n=18, geometric mean (CV%)): 1060 ng/mL
- AUC(0-t) ([1]; human, plasma, oral, 120 mg, Cycle 1 day 8, 120 mg Fed, n=18, geometric mean (CV%), read-out: AUClast): 7640 ng·h/mL
- Tmax ([1]; human, plasma, oral, 120 mg, Cycle 1 day 8, 120 mg Fed, n=18, median [min, max], read-out: Tmax): 3.01 h
- AUC(0-inf) [1, 9]: 7850 ng·h/mL
- Cmax [1, 9]: 1070 ng/mL
- AUC(0-t) ([1]; human, plasma, oral, 150 mg, Cycle 1 day 8, 150 mg Fasted, n=6, geometric mean (CV%), read-out: AUC0-24h): 7510 ng·h/mL
- AUC(0-t) ([1]; human, plasma, oral, 150 mg, Cycle 1 day 8, 150 mg Fasted, n=6, geometric mean (CV%), read-out: AUClast): 7550 ng·h/mL
- half-life ([1]; human, plasma, oral, 150 mg, Cycle 1 day 8, 150 mg Fasted, n=6, geometric mean (CV%), read-out: T1/2 (converted)): 5.24 h
- Tmax ([1]; human, plasma, oral, 150 mg, Cycle 1 day 8, 150 mg Fasted, n=6, median [min, max], read-out: Tmax): 2.42 h
- Tmax ([1]; human, plasma, oral, cycle 1 day 1, read-out: median Tmax across phase 1 treatment groups): 1 to 2.98 h
- Tmax ([1]; human, plasma, oral, cycle 1 day 8, read-out: median Tmax across phase 1 treatment groups): 1 to 3.01 h
- Tmax ([1]; human, plasma, oral, cycle 2 day 1, read-out: median Tmax across phase 1 treatment groups): 1.01 to 3.02 h
- half-life ([1]; human, plasma, oral, over all treatments and during all periods, read-out: terminal half-life (T1/2)): 4.91 to 6.57 h
- AUC ([1]; human, plasma, oral, 120 mg fasted, C1D8, geometric mean, CV 38.7%, read-out: AUCtau at steady state): 6970 ng·h/mL
- overall interpatient variability of drug exposure ([1]; in vivo): moderate
- food effect on Tmax [1, 10]: slightly delayed Tmax
- food effect on half-life [1, 10]: no effect on half-life
- drug accumulation following repeated dosing ([1]; qd dosing): no drug accumulation
- dose-response analyses with the pharmacodynamic biomarkers (FGF19-FGFR4 signaling; all doses tested): did not identify any associations; also recorded: without a clear dose response
- change in C4 level (FGF19-FGFR4 signaling; [11]): Increase; also recorded: treatment-induced elevation
- change in total bile acid level (FGF19-FGFR4 signaling; [11]): Increase; also recorded: treatment-induced elevation
- change in circulating FGF19 (FGF19-FGFR4 signaling; single-agent arm): Increase
- change in total cholesterol (FGF19-FGFR4 signaling; single-agent arm): decrease
- CYP7A1 transcript in on-treatment versus pretreatment biopsies [2, 12]: upregulation
- DUSP6 transcript in on-treatment versus pretreatment biopsies [2, 12]: downregulation
- changes in immune infiltration after FGF401 treatment ([2]; signatures summarized with GSVA): did not observe significant changes
- IC90 equivalent in human plasma (phospho-FGFR4 [3]): ~ 23 ng/mL
- IC90 (phospho-FGFR4 [4]): 52.1 nM
- growth of cell lines [5]: inhibits growth
- tumor response in xenografts [6]: robustly induces regression/stasis
